Converted amounts (≈) assume the structure as drawn.
Key:
[1] = Acute toxicity in mice, intravenous; type: in vivo; conditions: intravenous at the tail, ICR strain male mice, group of 5; 50% solution in polyethylene glycol 300
Protocol: Each of the compounds of Examples 10, 12, 19, 79, 142 and 146 was administered to a group of 5 ICR strain male mice (weight: 29-31 g) intravenously at the tails, and the acute toxicity of each compound was examined.
Each compound was administered in the form of a 50% solution in polyethylene glycol 300.

[2] = test system: Aspergillus fumigatus IFO8868; experiment: Therapeutic effect, oral, mice infected with Aspergillus fumigatus IFO8868 (4), Table 2d; type: in vivo; conditions: average survival days of Ketoconazole taken as 100; Aspergillus fumigatus 5.8×10^6 cells/mouse i.v.; 0.8 mg/mouse oral, 2 hours after infection and once daily for six consecutive days; 10 days observation; 10 mice
Protocol: (4) The therapeutic effects of the present compounds, when they were administered orally, were examined using mice infected with Aspergillus fumigatus IFO8868.
(§1) Aspergillus fumigatus IFO8868 was injected in a proportion of 5.8×10^6 cells/mouse to a group of 10 ICR strain male mice (weight: 19-21 g) intravenously at the tails, whereby the mice were infected with the fungi. […] The relative therapeutic index of the test compound was determined from the average survival days.
The results are shown in Table 2d, in which the relative therapeutic index of each test compound is a value calculated by taking the average survival days of Ketoconazole as 100.

[3] = test system: Aspergillus fumigatus IFO8868; experiment: Minimum inhibitory concentration (MIC) against Aspergillus fumigatus IFO8868; type: cell-based; conditions: IFO8868, 72 h, TC broth medium, 10^4 spores/ml, 37° C., 3 days
Protocol: (§2) MIC was determined in accordance with the method of M. S. Marriott [25th Interscience Conference on Antimicrobial Agents and Chemotherapy, p. 243 (1985)].
(§3) Candida albicans ON28 was cultured in a sabouraud dextrose agar medium containing 10 g of neopeptone, 20 g of glucose and 15 g of agar per liter, at 30° C. for 1-2 days. The yeast cells were suspended in sterile distilled water. Separately, Aspergillus fumigatus IFO8868 was cultured in a potato dextrose agar medium (manufactured by Nissui Pharmaceutical Co., Ltd.) at 30° C. until the conidia were formed abundantly. The formed conidia were suspended in a sterile physiological saline containing 0.1% of Tween 80. Each of the Candida albicans suspension and the Aspergillus fumigatus suspension was inoculated into a TC broth medium (containing 1.17 g of an yeast carbon base, 0.25 g of ammonium sulfate, 2.0 ml of a 50-fold concentrate of L-glutamic acid-containing MEM amino acid, 20 ml of a 0.5M phosphate buffer of pH 7.5 and 1.33 ml of 7.5% sodium hydrogencarbonate per 100 ml) containing a test compound, so that the final fungal amount became 10^4 spores/ml. Then, culture was conducted at 37° C. for 3 days. Thereafter, the growth of fungi was examined. The minimum concentration of test compound at which the growth of fungi had been inhibited, was taken as MIC (μg/ml).

Candida albicans ON28 [4] = experiment: Therapeutic effect, oral, mice infected with Candida albicans ON28 (3), Table 2c; type: in vivo, ICR strain male mice infected with Candida albicans ON28; conditions: average survival days of Ketoconazole taken as 100; Candida albicans 5.7×10^6 cells/mouse i.v.; 0.1 mg/mouse oral, 2 hours after infection; 10 days observation; 10 mice
Protocol: (3) The therapeutic effects of the present compounds, when they were administered orally, were examined using mice infected with Candida albicans ON28.
as §1, with “Candida albicans ON28” for “Aspergillus fumigatus IFO8868”, “5.7×10^6” for “5.8×10^6”
The results are shown in Table 2c, in which the relative therapeutic index of each test compound is a value calculated by taking the average survival days Ketoconazole as 100.

[5] = test system: Aspergillus fumigatus IFO8868; experiment: Therapeutic effect, oral, mice infected with Aspergillus fumigatus IFO8868 (2), Table 2b; type: in vivo; conditions: average survival days of Ketoconazole taken as 100; Aspergillus fumigatus 3.6×10^6 cells/mouse i.v.; 0.8 mg/mouse oral, 2 hours after infection; 10 days observation; 5 mice
Protocol: (2) The therapeutic effects of the present compounds, when they were administered orally, were examined using mice infected with Aspergillus fumigatus IFO8868.
as §1, with “3.6×10^6” for “5.8×10^6”, “5” for “10”
The results are shown in Table 2b, in which the relative therapeutic index of each test compound is a value calculated by taking the average survival days of Ketoconazole as 100.

Candida albicans ON28 [6] = experiment: Minimum inhibitory concentration (MIC) against Candida albicans ON28; type: cell-based; conditions: ON28, 72 h, TC broth medium, 10^4 spores/ml, 37° C., 3 days
Protocol: as §2, §3

Candida albicans ON28 [7] = experiment: Therapeutic effect, oral, mice infected with Candida albicans ON28 (1), Table 2a; type: in vivo, ICR strain male mice infected with Candida albicans ON28; conditions: average survival days of Ketoconazole taken as 100; Candida albicans 3.5×10^6 cells/mouse i.v.; 0.1 mg/mouse oral, 2 hours after infection; 10 days observation; 5 mice
Protocol: (1) The therapeutic effects of the present compounds, when they were administered orally, were examined using mice infected with Candida albicans ON28.
as §1, with “Candida albicans ON28” for “Aspergillus fumigatus IFO8868”, “3.5×10^6” for “5.8×10^6”, “5” for “10”
The results are shown in Table 2a, in which the relative therapeutic index of each test compound is a value calculated by taking the average survival days Ketoconazole as 100.

Row | Structure (SMILES) | dose up to which no dead case occurred (acute toxicity) [1] [mg/kg] | Relative therapeutic index [2] | MIC [3] [µg/mL] | Relative therapeutic index (Candida albicans ON28 [4]) | Relative therapeutic index [5] | MIC (Candida albicans ON28 [6]) [µg/mL] | Relative therapeutic index (Candida albicans ON28 [7])
1 | CCNC(=O)C(F)(F)C(O)(Cn1cncn1)c1ccc(F)cc1F (centres unmarked) [Example 12] | ≥ 100 | 237 | 25 (≈ 72.2 µM) | 445 | 150 | 0.2 (≈ 0.578 µM) | 440
2 | O=C(NC1CC1)C(F)(F)C(O)(Cn1cncn1)c1ccc(F)cc1F (centres unmarked) [Example 19] | ≥ 100 | 253 | 50 (≈ 140 µM) | 405 | 164 | 0.1 (≈ 0.279 µM) | 625
3 | O=C(NC1CC1)C(F)(F)C(O)(Cn1cncn1)c1ccc(F)cc1Cl (centres unmarked) [Example 30] | – | 358 | 12.5 (≈ 33.4 µM) | 414 | 207 | 0.2 (≈ 0.534 µM) | 355

From US5605921A, “Triazole derivatives and salts thereof, and antifungal agent containing the same” (Toyama Chemical Co., Ltd., priority 1991, dated 1997)
